Counter-ions that a name gives are not always drawn. Like-named read-outs stand apart in the source and are kept apart here.
Tests used:
[1] = molecular target: T1, EGFR kinase (Homo sapiens, UniProt P00533); test: EGFR tyrosine kinase enzyme inhibition assay (cell free, DELFIA time resolved fluorescence); format: biochemical; conditions: for IC50 / EGFR kinase activity IC50, range in words: cell free kinase assay
T1 construct: purchased Sigma E-3641
Description: Assessment of the EGFR tyrosine kinase activity of control quinoline 1 together with quinolines 10, 13, 14, 17, 18, 24 and 25 was carried out using a cell free kinase activity inhibition assay as detailed below. BPDQ (4-N-(3-bromophenyl)quinazoline-4,6,7-triamine), a quinazoline based EGFR inhibitor was also included in this assay as a further reference standard.
The inhibitory activity of quinolines 1, 10, 13, 14, 17, 18, 24 and 25 against EGFR kinase activity was measured by a time resolved fluorescence assay (DELFIA, Perkin-Elmer Life Sciences, Boston, Mass., USA). […] The reaction proceeded at rt for 1 h and was stopped by addition of 100 mM EDTA. The enzyme reaction solution was diluted and aliquots added to 96-well ELISA streptavidin plates with shaking for 1 h. The plates were washed and phosphorylated Tyrosine was detected with Eu-labeled antiphosphotyrosine antibody (50 ng/well; PT66; PerkinElmer). After washing and enhancement steps, the plates were assessed in a Victor^3 multi-label counter (PerkinElmer) using the EGFR Europium protocol.

[2] = molecular target: T2, EGFR autophosphorylation in A431 cells (Homo sapiens, UniProt P00533); test: Inhibition of EGFR autophosphorylation in A431 cells (Western blot p-EGFR/total EGFR); format: cell-based; conditions: for IC50: 3 h drug incubation then washing with drug free medium, mean ± sem, n = 3
T2 construct: highly EGFR-expressing A431 cells; endogenous in cells; host or cells: A431 human epidermoid cancer cells (ATCC)
T2 sequence (P00533 25-1210): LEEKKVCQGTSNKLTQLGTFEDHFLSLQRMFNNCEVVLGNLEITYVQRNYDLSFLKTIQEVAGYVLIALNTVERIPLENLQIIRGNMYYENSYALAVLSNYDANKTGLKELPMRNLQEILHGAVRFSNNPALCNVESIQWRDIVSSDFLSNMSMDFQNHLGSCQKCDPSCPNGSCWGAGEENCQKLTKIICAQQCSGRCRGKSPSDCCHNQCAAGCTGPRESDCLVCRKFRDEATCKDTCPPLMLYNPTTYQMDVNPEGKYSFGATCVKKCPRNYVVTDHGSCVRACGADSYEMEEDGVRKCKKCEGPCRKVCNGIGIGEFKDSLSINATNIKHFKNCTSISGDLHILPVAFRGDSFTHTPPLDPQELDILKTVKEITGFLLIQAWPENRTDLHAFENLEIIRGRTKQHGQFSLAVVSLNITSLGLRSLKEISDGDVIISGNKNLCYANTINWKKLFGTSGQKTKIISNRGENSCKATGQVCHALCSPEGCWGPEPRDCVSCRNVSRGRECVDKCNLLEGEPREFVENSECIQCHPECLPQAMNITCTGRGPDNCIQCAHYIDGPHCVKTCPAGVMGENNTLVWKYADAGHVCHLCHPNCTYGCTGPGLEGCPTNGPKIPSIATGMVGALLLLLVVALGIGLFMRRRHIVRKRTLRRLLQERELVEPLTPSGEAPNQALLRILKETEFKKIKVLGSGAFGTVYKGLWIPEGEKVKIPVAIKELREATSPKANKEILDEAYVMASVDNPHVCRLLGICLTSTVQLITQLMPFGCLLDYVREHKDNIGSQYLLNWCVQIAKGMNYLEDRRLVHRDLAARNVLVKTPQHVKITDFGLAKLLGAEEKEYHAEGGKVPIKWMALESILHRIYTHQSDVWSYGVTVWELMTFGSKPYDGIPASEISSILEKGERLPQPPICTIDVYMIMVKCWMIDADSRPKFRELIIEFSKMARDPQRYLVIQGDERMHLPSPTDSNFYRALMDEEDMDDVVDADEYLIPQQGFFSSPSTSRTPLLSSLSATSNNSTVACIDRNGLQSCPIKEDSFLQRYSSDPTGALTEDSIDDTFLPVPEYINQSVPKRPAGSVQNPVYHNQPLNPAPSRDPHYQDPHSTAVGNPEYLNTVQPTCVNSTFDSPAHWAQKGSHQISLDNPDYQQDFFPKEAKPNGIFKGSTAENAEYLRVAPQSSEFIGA
Description: The ability of the compounds to be transported across cell membranes and to inhibit EGFR autophosphorylation was examined in highly EGFR-expressing A431 cells.
The cells were maintained in DMEM (Sigma-Aldrich Company Ltd, Dorset, UK) supplemented with 10% fetal bovine serum (Lonza, UK), and 2 mM L-glutamine, 100 U/ml penicillin, 100 μg/mL streptomycin and 1 μg/mL fungizone (GIBCO) in 6 well plates incubated at 37° C. in a humidified incubator with 5% CO2. The experiments were designed to assess irreversibility of EGFR inhibition by the compounds. Cells in exponential growth were incubated with quinolines 1, 10, 13, 14, 17, 18, 24 and 25 at various concentrations for 3 h. EGF (100 ng/ml) was added to the cells during the last 15 min to induce p-EGFR. The medium was removed and replaced with fresh compound-free medium for 1 h. The last step was then repeated twice. The cells were then washed with cold PBS and lysed in RIPA buffer (Invitrogen Ltd, Paisley, UK) supplemented with protease and phosphatase inhibitor cocktails (Sigma-Aldrich Company Ltd, Dorset, UK). Lysates were clarified by centrifugation. The following antibodies were used: rabbit polyclonal antibody anti-p-EGFR (Cell signalling Technology, Denver, Mass.; 1:1000) and rabbit polyclonal antibody anti-EGFR (Santa Cruz Biotechnology, Santa Cruz, Calif.; 1:1000) and mouse monoclonal antibody anti-β-actin (Abcam, UK; 1:10000) as primary antibodies. The secondary antibodies were Goat anti Rabbit IgG HRP (Santa Cruz Biotechnology Santa Cruz, Calif.; 1:2000) and Goat anti Mouse IgG HRP (Autogen Bioclear, UK; 1:2000). The same procedure was used to assess EGFR and phospho-EGFR expression in HCT116 human colon carcinoma cells.

[3] = 25 μM ATP, read-out: IC50 (nM) EGFR kinase activity

T1 sequence (P00533 25-1210): as above

Row | IC50 [1, 3] | EGFR kinase activity IC50, range in words [1] | Cellular EGFR autophosphorylation inhibition, IC50 in words [2] | IC50 [2] | EGFR kinase activity relative to quinoline 18 ([1]; 17 compared with 18) | IC50 ([1]; read-out: EGFR kinase activity IC50) | SMILES
1 | 0.81 ± 0.01 nM | – | – | – | – | – | Nc1cc2ncnc(Nc3cccc(Br)c3)c2cc1N [BPDQ, 4-N-(3-bromophenyl)quinazoline-4,6,7-triamine, reference compound]
2 | 0.25 ± 0.06 nM | sub-nanomolar | low nanomolar range | 5.35 ± 1.52 nM | – | – | CCOc1cc2ncc(C#N)c(Nc3ccc(F)c(Cl)c3)c2cc1NC(=O)/C=C/CNC [compound 10, (E)-4-(Methylamino)-but-2-enoic acid [4-(3-chloro-4-fluorophenylamino)-3-cyano-7-ethoxy-quinoline-6-yl]amide]
3 | 0.8 ± 0.04 nM | sub-nanomolar | low nanomolar range | 23 ± 12 nM | – | – | CCOc1cc2ncc(C#N)c(Nc3ccc(F)c(Cl)c3)c2cc1NC(=O)/C=C/CN(C)CCF [compound 13, (E)-4-[(2-Fluoroethyl)methylamino]-but-2-enoic acid [4-(3-chloro-4-fluorophenylamino)-3-cyano-7-ethoxyquinoline-6-yl]amide]
4 | 0.57 ± 0.12 nM | sub-nanomolar | low nanomolar range | 16.5 ± 8.38 nM | – | – | CCOc1cc2ncc(C#N)c(Nc3ccc(F)c(Cl)c3)c2cc1NC(=O)/C=C/CN(C)Cc1ccc(F)cc1 [compound 14, (E)-4-[(4-Fluorobenzyl)methylamino]-but-2-enoic acid [4-(3-chloro-4-fluorophenylamino)-3-cyano-7-ethoxyquinoline-6-yl]amide]
5 | 1.81 ± 0.18 nM | – | low nanomolar range | 22 ± 9.06 nM | two-fold more active than 18 | – | CCOc1cc2ncc(C#N)c(Nc3ccc(F)c(Cl)c3)c2cc1NC(=O)/C=C/CNCc1cn(CCF)nn1 [compound 17, (E)-4-{[1-(2-Fluoro-ethyl)-1H-[1,2,3]triazol-4-ylmethyl]-amino}-but-2-enoic acid [4-(3-chloro-4-fluoro-phenylamino)-3-cyano-7-ethoxy-quinolin-6-yl]-amide hydrochloride]
6 | 0.29 ± 0.03 nM | – | low nanomolar range | 8.12 ± 2.03 nM | – | – | CNC/C=C/C(=O)Nc1cc2c(Nc3ccc(F)c(Cl)c3)c(C#N)cnc2cc1OCCF.Cl [compound 24, (E)-4-Methylamino-but-2-enoic acid [4-(3-chloro-4-fluorophenylamino)-3-cyano-7-(2-fluoroethoxy)-quinolin-6-yl]-amide hydrochloride]
7 | – | – | low nanomolar range | 60.2 ± 17.1 nM | – | 0.03 nM | C#CCNC/C=C/C(=O)Nc1cc2c(Nc3ccc(F)c(Cl)c3)c(C#N)cnc2cc1OCC.Cl [compound 25, (E)-4-Prop-2-ynylaminobut-2-enoic acid [4-(3-chloro-4-fluorophenylamino)-3-cyano-7-ethoxy-quinolin-6-yl]-amide hydrochloride]
